In patent US12640054B2, “Computational in silico model for placental barrier” (CFD Research Corporation, priority 2022, dated 2026):
Structures can show the parent of a compound that is named as a salt.

How the values were obtained:
[1] = tested on: in vitro placenta device (coculture of Bewo trophoblasts and HUVEC); experiment: Maternal-placental size exclusion (permeability index) in the in vitro placenta device; type: in vitro ADME, human; settings: injected into the maternal vascular channel at 0.1 μL/min for 1 hour; FIG. 9B
Description: Again, devices can be placed in the incubator.
In another example, one embodiment of the present invention was used to evaluate maternal-placental size exclusion, where a fluorescein sodium salt (FSS) solution was injected into the maternal vascular channel at 0.1 μL/min for 1 hour. […] PI was expected to decrease as a function of compound molecular weight.

trophoblast channel = experiment: Cytotoxicity by adenylate kinase release (luminescence); type: cell-based; settings: samples from the trophoblast channel; FIG. 11
Description: Following exposure, FSS was injected into the maternal channel and permeability assayed. Permeability in the devices was 10-fold higher in trypan blue treated devices compared to controls. An additional assay was performed to determine cytotoxicity as it relates to the release of adenylate kinase. A positive control (100% death by lysis buffer) and a negative control (media only) were included for comparison. Samples were taken from the trophoblast channel and placed in a low volume, white walled […] plate for luminescence analysis using a plate reader. […] The increase in AK release in arbitrary luminescence units compares the toxic exposure of trypan blue to positive and negative controls.

[2] = tested on: intervillous space - trophoblast barrier; experiment: Morphological effects of toxic exposure in the in vitro placenta device; type: cell-based; settings: injected into the maternal channel at 3 μL/min for 4 min, incubated at 37° C. for 15 min; FIG. 10
Text: In some embodiments, the in vitro placental model device can be used for studying toxicity of test agents to the placenta. Certain compounds not only induce fetal toxicity upon crossing the placental barrier, but also disrupt the barrier itself. The microfluidic placental barrier model can be used to study response to toxic exposure of test agents. The impact to barrier function can be assessed through permeability comparisons and toxicity (e.g., cytotoxicity, etc.) can be assessed off chip by various methods (e.g., cell lysate luminescence assay, genomic analysis, etc.).
For example, an in vitro placenta device was exposed to trypan blue by injection into the maternal channel at 3 μL/min for 4 min and then incubated at 37° C. for 15 min, similar to protocols in literature^7,8. […] White arrows show barrier degradation, and dark arrows show apoptosis following trypan blue exposure.

Row | Structure (SMILES) | increase in average PI compared to 4 kD TRITC-dextran [1] [fold] | increase in adenylate kinase release (trophoblast channel) [fold] | morphological effects of exposure [2]
1 | O=C1OC2(c3ccc(O)cc3Oc3cc(O)ccc32)c2ccccc21 [FSS, fluorescein sodium salt] | ~2 | – | –
2 | Cc1cc(-c2ccc(/N=N/c3c(S(=O)(=O)O)cc4cc(S(=O)(=O)O)cc(N)c4c3O)c(C)c2)ccc1/N=N/c1c(S(=O)(=O)O)cc2cc(S(=O)(=O)O)cc(N)c2c1O [trypan blue] | – | 1.5 | barrier degradation (e.g., cell death and detachment) and apoptosis
